Where a SMILES comes first, the peptide text is derived from it. [ ]: non-standard residue; d: D form. Cya = N[C@@H](CS(=O)(=O)O)C(=O)O
Legend:
[1] = test system: VEGF-A, TNFα, IL1β expression in choroid; experiment: qPCR of VEGF-A, TNFα and IL1β in choroid, laser CNV model; assay type: in vivo, Brown Norway rats; settings: 150 µg peptide basis i.p. every 4 days, days 7 and 14, trend
[2] = test system: phospho-ERK1/2 and phospho-FAK (Y397) in HUVEC cells; experiment: Western blot of ERK and FAK pathway activation after VEGF stimulation; assay type: cell-based, human; settings: 100 µM on a peptide basis, 24 h pretreatment, VEGF 5 min; trend
Experimental: HUVEC cells were seeded at a density of 5 × 10^4 cells per well in 24-well plates 24 h before treatment. Cells were treated with D-ALG1001 and ALG-1001 for 24 h before activation with VEGF for 5 min. Cells were collected and lysed for Western blotting using T-Per buffer (ThermoFisher) supplemented with PhosStop and proteinase inhibitor cocktail. Cells were lysed with Trizol and processed as previously described for qPCR analysis.
In brief, the concentration of protein was determined with the BCA protein assay kit (Thermo Scientific, Rockford, IL, USA). Equal amounts of protein were denatured and resolved on 4–15% TGX gels (Bio-Rad, Hercules, CA, USA). Gels were transferred to nitrocellulose membranes, blocked with 3% BSA at RT for 1 h and probed for GAPDH, FAK, pFAK, MAPK, and pMAPK at 4 °C overnight. Membranes were washed thrice before incubation with HRP-conjugated secondary antibodies followed by incubation with chemiluminescent substrate for visualization.
To elucidate the mechanism through which D-ALG and free ALG-1001 influence angiogenic function, we pretreated the cells with D-ALG and free ALG-1001 for 24 h. The cells were then stimulated with a high dose of exogenous VEGF for 5 min after which the samples were collected for Western blotting. […]

[3] = test system: choroidal neovascularization (CNV) area; experiment: In vivo attenuation of CNV formation, intraperitoneal dosing, laser CNV model; set-up: species or system Brown Norway rats
Experimental: (§1) On the day of CNV induction (Day 0), D-ALG1001 and ALG1001 was administered intraperitoneally at a dose of 150 µg on a peptide basis. Subsequent doses were administered every 4 days. At days 7 and 14, mice were sacrificed and enucleated. Eyes used for CNV image were fixed in 10% formalin for 1 h. Eyes used for qPCR, ELISA, and Western blotting were immediately stored at −80 °C until use.
(§2) Eyes were mounted by introducing four radial relaxation cuts. […] All images were processed with ImageJ.
We then evaluated whether the improved protection and targeting of D-ALG allowed for less invasive administration routes. A laser was used to induce CNV at day 0, and the first dose (150 µg peptide basis) of ALG-1001 and D-ALG was administered intraperitoneally. The animals were dosed once every 4 days at 150 µg of peptide basis (7.5 mg/kg). Choroidal flatmounts of eyes at day 7 and 14 were imaged, and the CNV area was calculated using ImageJ.

[4] = test system: choroidal neovascularization (CNV) area; experiment: In vivo attenuation of CNV formation, intravitreal injection, laser CNV model; set-up: species or system Brown Norway rats; settings: intravitreal injection after CNV induction; day 7
Description: as §2
A Micron III SLO scope and a laser attachment were used to induce CNV formation in mice. The laser CNV model was chosen due to its consistency in creating CNV and the progression of the CNV process. We first evaluated whether dendrimer conjugation impeded the peptide from attenuating CNV by first injecting free ALG-1001 and D-ALG intravitreally after CNV induction. The eyes were then collected on day 7 and the CNV area quantified.

[5] = test system: IL1β and TNFα expression in RAW264.7 cells; experiment: In vitro inflammation model, LPS-stimulated macrophages (qPCR); assay type: cell-based, Murine; settings: 24 h pretreatment, LPS 3 h
HUVEC cells [6] = experiment: Wound-healing (scratch) assay; assay type: cell-based, human; settings: HUVEC monolayer pretreated 24 h; 24 h after injury; dose not stated
Experimental: HUVEC cells were seeded at a density of 5 × 10^4 cells per well in 24-well plates and set aside for at least 72 h for a uniform monolayer of cells to form. Cells were treated with D-ALG1001 and ALG-1001 for 24 h. A centimeter-long scratch was introduced to the cell monolayer with the tip of a 200 µL pipette tip. Images were taken on a Nikon
In addition to cell morphological and motility changes measured by tube formation assays, we investigated the activity of D-ALG and ALG-1001 in a wound-healing assay. Previous studies have utilized this method to assess cell migration and proliferation. Monolayers of HUVECs were pretreated with D-ALG or ALG-1001 followed by scratching the monolayer with a pipette tip. Images were taken at the time of the wound and at 24 h after injury. The proliferative activity of endothelial cells can be measured by the area that was healed postinjury to the monolayer. Untreated cells managed to heal up to 80% of the initial damage after 24 h, while cells treated with D-ALG and ALG-1001 healed up to 50% of the initial wound area. […] Because neovascularization is driven in part by the proliferation and migration of endothelial cells in the disease area, reductions in these activities as observed in cells treated with D-ALG can modulate endothelial cell contributions to the neovascularization process.

[7] = test system: VEGF-A expression in HUVEC; experiment: VEGF-A expression by endothelial cells (qPCR); assay type: cell-based, human; settings: HUVEC coincubated with VEGF-A
[8] = test system: FAK, p-FAK (Y397), p44/42 ERK, phospho-p44/42 ERK in choroidal tissue; experiment: ELISA of FAK and ERK pathway activation in choroid, laser CNV model; assay type: in vivo, Brown Norway rats; settings: 150 µg peptide basis i.p. every 4 days
Experimental: as §1
In brief, 500 µL of T-Per supplemented with PhosStop and proteinase inhibitor cocktail was added to tubes containing dissected choroid. A scoop of 1.6 mm steel homogenization beads was added to each sample and then placed in TissueLyserLT (Qiagen, Germantown, MD, USA) at an oscillation frequency of 50 cycles/s for 15 min.
For protein extracted from tissues, total FAK and FAK (Phospho) [pY397] ELISA kits (Invitrogen) were used to quantify the level of protein expression, and the measured protein expression was normalized to the total protein amount of each sample as determined from BCA assays.
To evaluate the activation of FAK and ERK pathways, eyes were enucleated at set time points, and the choroidal tissue dissected out. Tissues were submerged in a mixture of T-per, proteinase inhibitor, and PhosStop with stainless-steel homogenization beads and homogenized to produce protein extracts. Total FAK, total ERK, p-FAK (Y397), and p-44/42 ERK ELISA kits were used to quantify the amount of total and phosphorylated proteins in FAK and ERK pathways. […] However, the level of total FAK protein in ALG-1001-treated animals was elevated at day 14.

HUVEC cells [9] = experiment: In vitro vessel (tube) formation assay on Matrigel; assay type: cell-based, human
Experimental: First, 96-well plates were coated with 75 µL of Matrigel and left at room temperature for 15 min before being placed into 37 °C incubators for an additional 30 min. Then, D-ALG1001 was dissolved at twice the desired concentration and 50 µL of the drug solution was added to the wells. HUVEC cells were then added to each well at a density of 70,000 cells/cm^2. Live-cell images were taken at 12 h for analysis.
To compare the dose–response efficacy of free and D-ALG in a physiologically relevant model, we utilized an in vitro model of blood vessel formation. HUVEC cells were treated with a gradient concentration of D-ALG and ALG-1001 for 24 h at three different magnitudes of doses. The cells were then seeded on Matrigel after which cells naturally migrate to form blood vessel-like tubule structures. The images were analyzed with the Angiogenesis Analyzer plug-in on ImageJ to extract relevant metrics that measure the connectivity and integrity of tube networks (Figure 3A and Figure S8).
Figure 3 In vitro inhibition of vessel formation. (A) Image analysis of HUVECs seeded onto a Matrigel matrix using the Angiogenesis Analyzer plug-in for ImageJ. […]

SMILES: C[C@@H](O)[C@H](NC(=O)[C@H](CS(=O)(=O)O)NC(=O)CNC(=O)[C@H](CCCNC(=N)N)NC(=O)CN)C(=O)N1CCC[C@H]1C(=O)O [ALG-1001] (H-GRG[Cya]TP-OH; N-terminus and C-terminus assumed)
- IL1β expression [1]: only reduced at day 14
- TNFα level (relative expression) [1]: lower TNFα levels across both time points
- VEGF-A production (relative expression) [1]: lower VEGF-A production at 14 days only
- phospho-ERK1/2 expression compared to untreated, VEGF stimulated controls [2]: lower levels
- phospho-FAK expression compared to untreated, VEGF stimulated controls [2]: lower levels
- reduction of CNV area on day 14 ([3]; 150 µg peptide basis (7.5 mg/kg) intraperitoneally every 4 days, choroidal flatmounts, ImageJ): 20%
- CNV area at day 14 (in words) ([3]; 150 µg peptide basis intraperitoneally every 4 days): recovered
- formation of CNV after intravitreal administration [4]: significantly inhibited the formation of CNV
- impact on IL1β production ([5]; high and low dose): no impact
- reduction of TNFα expression ([5]; high dose 1 mM): 20%
- initial wound area healed (HUVEC cells [6]): up to 50%
- VEGF production compared to the control [7]: did not have statistically significant increases
- total ERK ([8]; day 7): remained relatively constant
- total ERK compared to untreated animals ([8]; day 14): slight trend in the reduction
- total FAK protein ([8]; day 14): elevated
- p-FAK protein compared to untreated controls ([8]; days 7 and 14): trend in the reduction
- vessel formation compared to untreated cells (HUVEC cells [9]; 1 mM, Angiogenesis Analyzer, ImageJ): significantly reduced vessel formation
- vessel formation, effect of lower doses (HUVEC cells [9]; doses below 1 mM): not effective
